Laboratory results from patent US20240368133A1, “Compounds for the Treatment of Pain, in Particular, Neuropathic Pain, and/or Other Diseases or Disorders that are Associated with AT2R and/or AT2R Mediated Signaling” (Confo Therapeutics N.V., priority 2021, published 2024).

Experiments:
[1] = target: human AT2R fused to Cb23 (Homo sapiens, UniProt P50052); assay: Radioligand binding assay, displacement of 125I-[Sar1, Ile8]-Angiotensin II, hAT2R Cb23; conditions: displacement of 125I-[Sar1, Ile8]-Angiotensin II, human AT2R fused to Cb23, HEK-293 cell membrane preparations; read-out: Binding affinity on hAT2R_Cb23 IC50
Sequence of human AT2R fused to Cb23 (P50052 whole entry, looked up, the tested form may be a part): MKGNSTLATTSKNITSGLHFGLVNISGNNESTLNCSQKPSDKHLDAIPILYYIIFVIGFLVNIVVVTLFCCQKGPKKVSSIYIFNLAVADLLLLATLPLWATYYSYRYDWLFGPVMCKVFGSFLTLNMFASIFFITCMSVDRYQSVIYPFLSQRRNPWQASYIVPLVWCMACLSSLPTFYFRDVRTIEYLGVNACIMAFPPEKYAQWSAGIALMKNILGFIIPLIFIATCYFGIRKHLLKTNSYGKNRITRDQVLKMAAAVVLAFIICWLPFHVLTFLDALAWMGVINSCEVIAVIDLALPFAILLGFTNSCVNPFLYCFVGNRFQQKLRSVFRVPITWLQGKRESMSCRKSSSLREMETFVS
How it was run: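 Membranes from HEK-293 cells expressing human AT2R fused to Cb23 were incubated with 0.05 nM 125I-[Sar1, Ile8]-Angiotensin II in 100 μL buffer (50 mM Tris, 5 mM MgCl2, 1 mM EDTA, 0.1% BSA, pH 7.4) for one hour at 25° C. Ligands were tested as eight-point dose-response curves in duplicate, with C21 and Angiotensin II as references.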

[2] = Plasma protein binding (equilibrium dialysis), mouse; assay type: in vitro ADME; conditions: for fraction unbound: equilibrium dialysis, read-out: PPB (%), mouse (converted); for recovery: plasma (undiluted, freshly thawed), PPB assay recovery
Procedure: (§1) The assay was performed in a multiple-use 96-well dialysis unit (HTD96b dialyzer). Each individual well unit consisted of 2 chambers separated by a vertically aligned dialysis membrane of predetermined pore size (MWCO 12-14 kDa). 120 μl of non-diluted freshly thawed mouse, rat or human plasma spiked with the compound (1 μM, final DMSO concentration 1%) was added to one chamber and the same volume of PBS buffer pH 7.4 to the other chamber. HTD96b dialyzer was covered with adhesive sealing film and incubated at 37° C., shaking at 100 rpm for 5 hours.
(§2) For samples preparation, an aliquot of the content of each chamber had been mixed with the same volume of the blank opposite matrix. In order to define non-specific loss of the compound during this assay, a standard solution was created by mixing an aliquot of spiked plasma with blank buffer without dialysis. Samples were diluted 10-fold with 100% acetonitrile with subsequent plasma proteins sedimentation by centrifuging at 6000 rpm for 5 minutes. Supernatants were analyzed using HPLC system coupled with tandem mass spectrometer (API3000 PE Sciex). Acquisition and analysis of the data were performed using Analyst 1.5.2 software (PE Sciex). The percentage of plasma protein bound compound and recovery were calculated using following equations: […]
(§3) The percentage of plasma protein bound compound and recovery were calculated using following equations:
(§4) with: • Cplasma=peak area of the compound in the plasma/peak area of the IS in the plasma • Cbuffer=peak area of the compound in the buffer/peak area of the IS in the buffer • ‘Concentration’ is the ratio between compound and IS peak areas
(§5) The recovery is a control, which allows to be sure that the compound has not a non-specific binding to the plates or is not stable in the plasma in these conditions:
(§6) with: • PBS=(ratio of the peak area of the compound/peak area of the IS) in the PBS compartment after 4 h • Plasma=(ratio of the peak area of the compound/peak area of IS) in the plasma compartment after 4 h • Recov=Recovery=ratio of the peak are of the compound I the well recovery/peak area of the IS in the well recovery at TO
(§7) The solubility of the compound in the final test concentration in PBS is checked by microscope to indicate whether precipitation is observed or not. If a precipitate is observed, no data of PPB is generated.

[3] = Plasma protein binding (equilibrium dialysis), human; assay type: in vitro ADME; conditions: for fraction unbound: equilibrium dialysis, read-out: PPB (%), human (converted); for recovery: plasma (undiluted, freshly thawed), PPB assay recovery
Procedure: as §1, §2, §3, §4, §5, §6, §7

[4] = Metabolic stability in hepatocytes, rat; assay type: in vitro ADME; conditions: hepatocytes (cryopreserved), read-out: Rat Clint (μL/min/10^6 cells)
Procedure: The aim of this assay is to determine the metabolic stability of the compound in hepatocytes (cryopreserved) of different species (mouse CD1, rat Sprague Dawley, dog Beagle). Low hepatocyte stability may result in the formation of unwanted metabolites, high clearance, and therefore is not desirable. The decrease in parent was assessed by measuring the percentage remaining by LC-MS/MS analysis. The batches of hepatocytes were tested for quality control using Testosterone, Umbelliferone and Caffeine as reference compounds.
A 10 mM stock solution of test compound in DMSO was first diluted in DMSO to 3 mM, and then in modified Krebs-Henseleit buffer (Sigma, K3753) to 5 μM. This compound dilution was added to a suspension of pooled cryopreserved hepatocytes (BioIVT) at 37° C. under gentle shaking. Final reaction conditions were: 1 μM of test compound, <0.1% DMSO, 0.5 million viable hepatocytes/mL, and 75 μL incubation volume.
After 0, 10, 20, 45, 90, 120 and 180 min of incubation, the reaction was terminated with 3 volumes of MeCN:MeOH (2:1) containing diclofenac as analytical internal standard. Samples were mixed, centrifuged and the supernatant analyzed by LC-MS/MS (systems API4000). The instrument responses (ratios of test compound and internal standard peak areas) were referenced to the zero time point samples (considered as 100%) in order to determine the percentage of compound remaining. Plots of percentage compound remaining were used to determine the intrinsic clearance in the hepatocyte incubations.
Testosterone (1 μM) and Umbelliferone (1 μM) and Caffeine (1 μM) were used as reference compounds, being unstable and stable compounds respectively. If the hepatocyte stability values for these controls are not in the range determined by the historical data, the assay is not validated.

SMILES | IC50 [1] [nM] | fraction unbound [2] | recovery [2] [%] | fraction unbound [3] | recovery [3] [%] | hepatocyte CLint [4] [µL/min/1e6 cells]
CCCCOC(=O)NS(=O)(=O)c1ccc(C(F)(F)F)cc1N1CCN(Cc2nc3ccccc3n2C)CC1 [Compound A-09, butyl N-[2-[4-[(1-methylbenzimidazol-2-yl)methyl]piperazin-1-yl]-4-(trifluoromethyl)phenyl]sulfonylcarbamate] | 2180 | – | – | – | – | –
CCCCNC(=O)NS(=O)(=O)c1ccc(C)cc1N1CCN(Cc2nc3ccccc3n2C)CC1 [Compound A-12, 1-butyl-3-[4-methyl-2-[4-[(1-methylbenzimidazol-2-yl)methyl]piperazin-1-yl]phenyl]sulfonyl-urea] | 1270 | – | – | – | – | –
CC(C)Cc1ccc(-c2nn[nH]n2)c(N2CCN(Cc3nc4ccccc4n3C)CC2)c1 [Compound A-20, 2-[[4-[5-isobutyl-2-(2H-tetrazol-5-yl)-phenyl]piperazin-1-yl]methyl]-1-meth-yl-benzimidazole] | 510 | – | – | – | – | –
CC(C)Oc1ccc(-c2nn[nH]n2)c(N2CCN(Cc3nc4ccccc4n3C)CC2)c1 [Compound A-24, 2-[[4-[5-isopropoxy-2-(2H-tetrazol-5-yl)phenyl]piperazin-1-yl]methyl]-1-methyl-benzimidazole] | 7140 | – | – | – | – | –
CC(C)Cc1ccc(-c2nn[nH]n2)c(N2CCN(Cc3nc4ccccc4c(=O)[nH]3)CC2)c1 [Compound A-31, 2-[[4-[5-isobutyl-2-(2H-tetrazol-5-yl)phenyl]piperazin-1-yl]methyl]-3H-quinazolin-4-one] | 2070 | < 0.05 | 88 | < 0.08 | 82 | –
CC(C)Oc1ccc(-c2nn[nH]n2)c(N2CCN(Cc3nc4ccccc4c(=O)[nH]3)CC2)c1 [Compound A-32] | 14700 | – | – | – | – | –
CC(C)Oc1ccc(-c2nn[nH]n2)c(N2CCN(Cc3nc4ccccc4s3)CC2)c1 [Compound A-51, 2-[[4-[5-isoprop-oxy-2-(2H-tetrazol-5-yl)phenyl]piper-azin-1-yl]methyl]-1,3-benzothiazole] | 2110 | – | – | – | – | –
Cc1cc(CN2CCN(c3cc(CC(C)C)ccc3-c3nn[nH]n3)CC2)no1 [Compound A-82, 3-[[4-[5-isobutyl-2-(2H-tetrazol-5-yl)phenyl]piperazin-1-yl]methyl]-5-methyl-isoxazole] | 3200 | – | – | – | – | –
CC(C)Cc1ccc(-c2nn[nH]n2)c(N2CCN(Cc3nccn3C)CC2)c1 [Compound A-83, 1-[5-isobutyl-2-(2H-tetrazol-5-yl)-phenyl]-4-[(1-meth-ylimidazol-2-yl)-methyl]piperazine] | 1780 | – | – | – | – | –
CC(C)Cc1ccc(-c2nn[nH]n2)c(N2CCN(Cc3ccnn3C)CC2)c1 [Compound A-84, 1-[5-isobutyl-2-(2H-tetrazol-5-yl)phenyl]-4-[(1-methylpyrazol-5-yl)methyl]piperazine] | 2370 | – | – | – | – | –
CC(C)Cc1ccc(-c2nn[nH]n2)c(N2CCN(Cc3ncccn3)CC2)c1 [Compound A-88] | 15500 | – | – | – | – | –
CC(C)Cc1ccc(-c2nn[nH]n2)c(N2CCN(Cc3cccnn3)CC2)c1 [Compound A-90, 3-[[4-[5-isobutyl-2-(2H-tetrazol-5-yl)phenyl]piperazin-1-yl]methyl]pyridazine] | 2030 | 0.22 | 97 | 0.05 | 83 | –
CC(C)Cc1cc(F)c(-c2nn[nH]n2)c(N2CCN(Cc3cccnn3)C(C)C2)c1 (stereo not shown) [Compound A-173, 3-[[4-[3-fluoro-5-isobutyl-2-(2H-tetrazol-5-yl)phenyl]-2-methyl-piperazin-1-yl]methyl]pyridazine] | 16 | 0.12 | 92 | 0.05 | 94 | 2
CC(C)Cc1cc(F)c(-c2nn[nH]n2)c(N2CCN(Cc3cccnn3)[C@@H](C)C2)c1 [Compound A-174, 3-[[(2S)-4-[3-fluoro-5-isobutyl-2-(2H-tetrazol-5-yl)phenyl]-2-methyl-piperazin-1-yl]methyl]pyridazine] | 2.35 | 0.027 | 95 | 0.026 | 99 | 10.5
CCC1CN(c2cc(CC(C)C)cc(F)c2-c2nn[nH]n2)CCN1Cc1cccnn1 (stereo not shown) [Compound A-178, 3-[[2-ethyl-4-[3-fluoro-5-isobutyl-2-(2H-tetrazol-5-yl)phenyl]piperazin-1-yl]methyl]pyridazine] | 33.5 | 0.1 | 93 | 0.04 | 99 | 0.2
CCC1CN(Cc2cccnn2)CCN1c1cc(CC(C)C)cc(F)c1-c1nn[nH]n1 (stereo not shown) [Compound A-181, 3-[[3-ethyl-4-[3-fluoro-5-isobutyl-2-(2H-tetrazol-5-yl)phenyl]piperazin-1-yl]methyl]pyridazine] | 14.8 | 0.07 | 96 | 0.03 | 95 | 1
CC(C)Cc1cc(F)c(-c2nn[nH]n2)c(N2CC(C)N(Cc3cccnn3)CC2C)c1 (stereo not shown) [Compound A-183, 3-[[4-[3-fluoro-5-isobutyl-2-(2H-tetrazol-5-yl)phen-yl]-2,5-dimethyl-piperazin-1-yl]-methyl]pyridazine] | 8.33 | 0.13 | 90 | 0.06 | 96 | 2.6
CC(C)Cc1cc(F)c(-c2nn[nH]n2)c(N2CCN(Cc3ccccn3)[C@@H](C)C2)c1 [Compound A-217, (2S)-4-[3-fluoro-5-isobutyl-2-(2H-tetrazol-5-yl)phenyl]-2-methyl-1-(2-pyridylmethyl)piperazine] | 2.79 | – | – | 0.004 | 100 | 8.7
Cc1cnc(CN2CCN(c3cc(CC(C)C)cc(F)c3-c3nn[nH]n3)C[C@@H]2C)s1 [Compound A-223, 2-[[(2S)-4-[3-fluoro-5-isobutyl-2-(2H-tetrazol-5-yl)phenyl]-2-methyl-piperazin-1-yl]methyl]-5-methyl-thiazole] | 6 | – | – | – | – | –
